The source of these data is patent US5364772A, “DNA molecule encoding the β3 -adrenergic receptor” (Wayne State University, priority 1992, dated 1994).

The subject of assay [1] is truncated (402 amino acids) human β3-adrenergic receptor. To be noted: cited from earlier work; for inhibition at the truncated receptor: Emorine et al., 1989.
Assay [2] concerns the target T1, full length (408 amino acids) human β3-adrenergic receptor (Homo sapiens, UniProt P13945).
T1 construct: CHO cells expressing the full length human β3 receptor are harvested; expressed in transfected cells
In words: Functional activity (adenylyl cyclase) at full-length human β3 receptor expressed in CHO cells. It counts as biochemical.
Method: Culture medium was removed and cells were washed in phosphate-buffered saline and then harvested in 25 mM HEPES (pH 8.0) buffer containing 2 mM MgCl2 and 1 mM EDTA. Cell were homogenized and centrifuged at 48,000×g for 15 min. to obtain crude membranes. Membrane pellets were resuspended and used directly or frozen at -80° until used. […] Membranes (5-15 μg of protein) were preincubated at 4°, in a volume of 40 μl, with the specified drugs for 15 min. Adenylyl cyclase reactions were initiated by addition of substrate mixture and were terminated after 30 min at 30°. […] Concentration-response data were analyzed by nonlinear regression analysis with a one-site mass action equation for transfected CHO cells (Enzfitter, Elsevier Biosoft).
Chinese hamster ovary (CHO) cells are transfected with constructs based upon the expression vector pRc/CMV. […] Transfection of CHO cells with DNA constructs is accomplished by the CaPO4 -DNA precipitation method as described in Maniatis et al., ibid. To obtain cells that stably express these DNA constructs, transfected cells are selected based upon their resistance to G418, which is conferred by the neomycin-resistance gene contained in pRc/CMV. Cells that survive selective conditions (e.g. 800 μg/ml G418) are then cloned by limiting dilution.
CHO cells expressing the full length human β3 receptor are harvested and membranes prepared as described by Granneman et al., ibid. Adenylyl cyclase activity is then determined in response to various agents known or thought to interact with the β3 receptor, using the method of Salomon, ibid. Agonists are identified by the ability to increase cyclic AMP generation above basal levels. Antagonists are identified by their ability to decrease adenylyl cyclase activity that is stimulated by 100 nM isoproterenol.

In assay [3] the test system is adipose tissue-specific genes. The note with it: Kletzien et al., 1992; cited from earlier work.

T1 sequence (P13945 whole entry): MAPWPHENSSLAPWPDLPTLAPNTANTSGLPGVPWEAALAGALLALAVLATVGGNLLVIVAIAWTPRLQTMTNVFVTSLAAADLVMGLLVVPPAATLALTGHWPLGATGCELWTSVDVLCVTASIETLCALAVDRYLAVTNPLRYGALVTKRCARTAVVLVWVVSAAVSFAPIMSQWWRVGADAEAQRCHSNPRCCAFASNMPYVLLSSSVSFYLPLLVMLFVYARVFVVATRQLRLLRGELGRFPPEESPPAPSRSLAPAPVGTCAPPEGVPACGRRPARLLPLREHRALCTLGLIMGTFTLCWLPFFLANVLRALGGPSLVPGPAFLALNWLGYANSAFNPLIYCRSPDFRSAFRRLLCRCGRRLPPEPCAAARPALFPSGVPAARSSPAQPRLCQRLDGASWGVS

`CC(C)NCC(O)COc1cccc2ccccc12` (stereo not shown) [Propranolol]: the “inhibition at the truncated receptor” value in assay [1] was “essentially inactive”.
As to `CC(Cc1ccc(OCC(=O)O)cc1)NCC(O)c1cccc(Cl)c1` (stereo not shown) [BRL 37344], the agonist character entry in assay [1] and in assay [2] (full length receptor) was “partial agonists” in each case. The activation potency entry in assay [2] (full-length receptor) is on record as “relatively low potency”.
Turning to `CC1(COc2ccc(CC3SC(=O)NC3=O)cc2)CCCCC1` (stereo not shown) [Cigilazone], in assay [3], the “effect on expression of adipose tissue-specific genes” value was “augment the expression of adipose tissue-specific genes”.
Regarding `C=CCc1ccccc1OCC(O)CNC(C)C` (stereo not shown) [alprenolol], the “inhibition at the truncated receptor” value in assay [1] is “essentially inactive”. Also, in assay [2] (full length receptor), the “potency of inhibition of the full length receptor (antagonists)” value was “submicromolar potencies”.
